Data reported in US6915969B2, “Method and installation for making flour from ozone-treated grains” (Green Technologies Sarl, priority 1999, dated 2005).

Assay: reduction of pesticide contaminants
Set-up: species or system wheat
Conditions: after treatment by the method of the invention (ozone)
From the text: A reduction of about 80% in the content of Chlorpyriphosmethyl (a pesticide generally used in the case of wheat) was thus observed, thus leading certainly to a product which is perfectly acceptable from the point of view of the current food standards.

COP(=S)(OC)Oc1nc(Cl)c(Cl)cc1Cl [Chlorpyriphosmethyl]
reduction in the content of Chlorpyriphosmethyl: about 80%
